Tested on: HL-60
Experiment: In vitro inhibitory activity against phospholipase D (PLD) activation in HL-60 cells by phospholipase D assay
Format: cell-based
Conditions: Homo sapiens

O=C1C(O)=CC2(Oc3cccc4cccc(c34)O2)[C@@]23O[C@@]12[C@@H](O)C=C[C@H]3O
IC50: 11 µM

O=C1C(O)=CC2(Oc3cccc4cccc(c34)O2)[C@@]23O[C@@]12[C@@H](O)CC[C@H]3O
IC50: 12 µM
